According to article PMC10757358 (The Journal of steroid biochemistry and molecular biology, 2023):

What was measured:
[1] = molecular target: T1, CYP11B1 (Homo sapiens, UniProt P15538); assay: biochemical
T1 sequence (P15538 25-503): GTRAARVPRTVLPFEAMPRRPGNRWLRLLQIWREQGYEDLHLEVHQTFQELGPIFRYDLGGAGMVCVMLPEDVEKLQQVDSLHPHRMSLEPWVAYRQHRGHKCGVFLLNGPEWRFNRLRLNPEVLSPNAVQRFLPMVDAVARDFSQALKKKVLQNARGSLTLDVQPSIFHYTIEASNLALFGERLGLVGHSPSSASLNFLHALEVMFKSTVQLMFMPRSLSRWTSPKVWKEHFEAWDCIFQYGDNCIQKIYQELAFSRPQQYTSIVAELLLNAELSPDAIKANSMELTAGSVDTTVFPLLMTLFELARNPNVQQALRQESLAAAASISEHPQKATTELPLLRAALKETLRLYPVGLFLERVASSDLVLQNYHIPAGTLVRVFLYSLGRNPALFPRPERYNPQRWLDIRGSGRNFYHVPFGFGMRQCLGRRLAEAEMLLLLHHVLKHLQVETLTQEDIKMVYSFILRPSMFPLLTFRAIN

[2] = molecular target: T2, CYP11B2 (Homo sapiens, UniProt P19099); assay: biochemical
T2 sequence (P19099 25-503): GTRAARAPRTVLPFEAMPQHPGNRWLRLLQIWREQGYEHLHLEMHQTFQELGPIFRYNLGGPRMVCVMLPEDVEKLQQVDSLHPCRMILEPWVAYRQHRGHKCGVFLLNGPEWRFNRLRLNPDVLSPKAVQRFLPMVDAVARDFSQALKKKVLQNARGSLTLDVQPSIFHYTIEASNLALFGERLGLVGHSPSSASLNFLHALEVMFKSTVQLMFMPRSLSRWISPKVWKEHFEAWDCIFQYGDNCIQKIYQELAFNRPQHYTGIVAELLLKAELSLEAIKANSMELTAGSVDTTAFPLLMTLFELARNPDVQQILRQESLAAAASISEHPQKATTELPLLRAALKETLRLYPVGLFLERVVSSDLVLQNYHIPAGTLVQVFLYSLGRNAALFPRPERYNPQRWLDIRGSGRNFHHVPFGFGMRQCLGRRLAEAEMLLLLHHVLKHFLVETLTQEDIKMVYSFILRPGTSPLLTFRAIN

[3] = test system: CYP11B2; settings: read-out: reported IC50, CYP11B2; in-vitro studies; cited from earlier work
[4] = test system: NCI-H295R human adrenocortical cancer cell line; settings: NCI-H295R cells
[5] = molecular target: T3, CYP11A1 (Homo sapiens, UniProt P05108)
[6] = molecular target: T3, CYP11A1; assay: biochemical
[7] = test system: CYP11B1; settings: read-out: reported IC50, CYP11B1; in-vitro studies; cited from earlier work

T3 sequence (P05108 40-521): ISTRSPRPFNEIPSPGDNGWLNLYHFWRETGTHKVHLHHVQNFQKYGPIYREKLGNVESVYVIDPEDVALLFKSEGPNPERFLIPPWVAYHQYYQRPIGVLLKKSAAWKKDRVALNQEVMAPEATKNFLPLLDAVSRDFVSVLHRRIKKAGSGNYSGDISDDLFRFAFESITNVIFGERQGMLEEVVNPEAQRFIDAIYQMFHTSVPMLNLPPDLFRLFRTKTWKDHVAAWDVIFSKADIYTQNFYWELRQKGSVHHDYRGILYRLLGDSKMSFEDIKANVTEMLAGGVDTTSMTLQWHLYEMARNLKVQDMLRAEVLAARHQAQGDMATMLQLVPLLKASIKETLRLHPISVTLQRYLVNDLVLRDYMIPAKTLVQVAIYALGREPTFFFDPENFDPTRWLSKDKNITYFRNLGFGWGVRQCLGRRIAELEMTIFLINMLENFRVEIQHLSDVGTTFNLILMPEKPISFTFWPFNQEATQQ

SMILES	Kd [1] [µM]	Kd [2] [µM]	IC50 [3] [µM]	aldosterone production, % of baseline ([4]; 0-1000 nM LCI699, 24 h) [%]	androstenedione level ([4]; 0-1000 nM LCI699, 24 h)	corticosterone, % of the baseline ([4]; 0-1000 nM LCI699, 24 h) [%]	cortisol production, % of baseline ([4]; 0-1000 nM LCI699, 24 h) [%]	11-deoxycortisol level ([4]; higher concentrations of LCI699, changes did not reach statistical significance)	inhibition [5] [%]	Kd [6] [µM]	IC50 [7] [µM]
C[C@]12CC[C@H]3[C@@H](CCC4=CC(=O)CC[C@@]43C)[C@@H]1CC[C@@H]2C(=O)CO [DOC, 11-deoxycorticosterone]	0.42	0.27									
N#Cc1ccc([C@H]2CCc3cncn32)c(F)c1 [LCI699, Osilodrostat]			[…]	2 ± 3	remained unchanged	1 ± 2	13 ± 4	appeared to increase	[…]	18.8	[…]
